IC50 data for 28 molecules are collected here from US20220298115A1, “SMALL MOLECULE INHIBITORS OF ACETYL COENZYME A SYNTHETASE SHORT CHAIN 2 (ACSS2)” (Curadev Pharma Pvt. Ltd., priority 2019, published 2022).

Usually IC50 stands for the concentration that gives 50% inhibition.

Like-named read-outs stand apart in the source and are kept apart here. Some results are limits rather than exact numbers.

One assay addresses T1, human ACSS2 (Homo sapiens, UniProt Q9NR19).
T1 construct: The cytosolic fraction of BT474 cells was used as a source of the ACSS2 enzyme; endogenous in cells; host or cells: BT474 cells (cytosolic fraction)
The assay can be described thus: ACSS2 enzyme assay (acetyl-CoA formation, LC-MS/MS). Format: biochemical. As to conditions: cytosolic fraction of BT474 cells as ACSS2 source; 100 μM acetate, CoA and ATP; 2 h at 25° C.; read-out: Enzyme Activity (IC50 range). As for the experimental part: Novel compounds were screened in a human ACSS2 enzyme assay. Briefly, the ACSS2 enzyme reaction was monitored by directly measuring acetyl-CoA formation. The cytosolic fraction of BT474 cells was used as a source of the ACSS2 enzyme. A short protocol for this assay is provided below.
Preparation of Cytosolic Fraction from BT474 Cells
9×10^6 cells were harvested by trypsinization followed by centrifugation. The cell pellet was washed with PBS and dissolved in 500 μl STM buffer (50 mM Tris-HCl pH7.4, 250 mM sucrose, 5 mM MgCl2 & protease-phosphatase inhibitor cocktail) and homogenized at 600-1000 rpm for 1 min. on ice followed by incubation for 30 min. with intermittent vortexing. Supernatant was collected by centrifugation at 800 g for 15 min. at 4° C. Cytosolic fraction was prepared by further centrifugation of the supernatant at 12000 g for 15 min. at 4° C. Total protein content of the cytosolic fraction was estimated & diluted to 1 mg/ml concentration in storage buffer (25 mM Tris-HCl pH7.4, 1 mM MgCl2, 1 mM DTT & 10% glycerol) and stored at −80° C. for further use.
100 ng of cytosolic fraction in buffer composed of 25 mM Tris-HCl pH7.4 1 mM MgCl2, 1 mM DTT & 0.05% Tween20 was preincubated with desired concentrations of novel compounds for 5 min. maintaining 1% DMSO. Reaction was started with addition of substrate mix (100 μM of acetate, CoA and ATP) and incubated for 2 h at 25° C. with constant shaking at 500 rpm. Post incubation the reaction was terminated by addition of 10% TCA followed by 5 fold dilution in water. The reaction mixture was centrifuged at 800 g for 10 min. at RT and acetyl-CoA detected in supernatant by LC-MS/MS (QTrap5500 ABSCIEX).

For assay [1], the system named is [14C] acetate incorporation in macromolecules, BT474 cells. The assay can be described thus: Cell based [14C] acetate incorporation assay. As to conditions: read-out: Cellular Activity (IC50 range). On the procedure:
Cell Based [^14C] Acetate Incorporation Assay
In the cellular assay, ACSS2 inhibitors were screened against [^14C] acetate incorporation in macromolecules. 4×10^4 BT474 cells were plated in 96 well plates in growth media composed of DMEM & 10% FBS and incubated overnight in a 37° C., 5% CO2 incubator. The following day the cells were washed in HBSS and the assay was performed in 100 μl of HBSS. 50 μl of 4× compound in 4% DMSO was added to the cells and preincubated for 10 min. at 37° C. 50 μl of acetate solution (0.1 μCi ^14C acetate+10 μM ^12C acetate) was added to each well of the plate and incubated for 3 h in a 37° C., 5% CO2 incubator. Following incubation, cells were harvested with water on polyethylene imine (PEI) presoaked GF/C filtermat, air dried and radioactive count were recorded in Trilux micro beta Liquid Scintillation Counter (PerkinElmer).

The mark [2] stands for this setting: Homo sapiens, BT-474, 3 h at 37° C.

T1 sequence (Q9NR19 whole entry): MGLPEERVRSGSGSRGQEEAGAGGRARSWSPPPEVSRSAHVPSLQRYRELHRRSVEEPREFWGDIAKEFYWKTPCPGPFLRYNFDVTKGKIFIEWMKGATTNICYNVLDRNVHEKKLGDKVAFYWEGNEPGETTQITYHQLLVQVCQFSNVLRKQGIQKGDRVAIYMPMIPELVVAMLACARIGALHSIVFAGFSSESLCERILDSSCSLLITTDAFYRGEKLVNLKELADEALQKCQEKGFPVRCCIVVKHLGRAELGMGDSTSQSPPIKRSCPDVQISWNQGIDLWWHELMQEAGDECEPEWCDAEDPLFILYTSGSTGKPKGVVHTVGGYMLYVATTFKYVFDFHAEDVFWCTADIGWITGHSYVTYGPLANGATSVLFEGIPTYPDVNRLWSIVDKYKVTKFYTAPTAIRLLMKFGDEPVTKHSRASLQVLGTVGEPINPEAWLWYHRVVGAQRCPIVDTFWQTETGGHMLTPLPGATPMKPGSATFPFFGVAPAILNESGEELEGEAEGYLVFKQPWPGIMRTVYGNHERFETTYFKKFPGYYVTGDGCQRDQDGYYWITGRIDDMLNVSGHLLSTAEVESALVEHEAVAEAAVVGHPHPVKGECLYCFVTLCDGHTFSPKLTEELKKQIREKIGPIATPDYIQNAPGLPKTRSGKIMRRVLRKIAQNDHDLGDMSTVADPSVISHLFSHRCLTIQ

Regarding `CCC(O)CNC(=O)Nc1ccc2nc(-c3ccccc3)c(-c3ccccc3)c(C(=O)OC)c2c1` (stereo not shown) [Example 48, methyl 6-(3-(2-hydroxybutyl)ureido)-2,3-diphenylquino-line-4-carboxylate], the half-inhibitory concentration (IC50) (at human ACSS2; in assay [1] (setting [2])) was under 100 nM each time.

On to `CCC(O)CNC(=O)Nc1ccc2nc(-c3ccnc(O)c3)c(-c3ccnc(O)c3)cc2c1` (stereo not shown) [Example 29, 1-(2,3-bis(2-hydroxypyridin-4-yl)quinolin-6-yl)-3-(2-hydroxybutyl) urea], for which the IC50 (on human ACSS2; in assay [1] (setting [2])) was over 10000 nM in each case.

Regarding `CC[C@@H](O)CNC(=O)Nc1ccc2nc(C)c(-c3ccccc3C)cc2c1` [Example 83, (R)-1-(2-hydroxybutyl)-3-(2-methyl-3-(o-tolyl)quinolin-6-yl)urea], the IC50 (on human ACSS2; in assay [1] (setting [2])) was under 100 nM throughout.

`O=C(Nc1ccc2nc(-c3ccccc3)c(-c3ccccc3)cc2c1)NC1CCOCC1` [Example 137, 1-(2,3-diphenylquinolin-6-yl)-3-(tetrahydro-2H-pyran-4-yl)urea]: the half-maximal inhibitory concentration (IC50) (on human ACSS2; in assay [1] (setting [2])) was at most 1000 nM in each case. Regarding `CCC(F)(F)CNC(=O)Nc1ccc2nc(-c3ccccc3)c(-c3ccccc3F)cc2c1` [Example 45, 1-(2,2-Difluorobutyl)-3-(3-(2-fluorophenyl)-2-phenylquinolin-6-yl)urea], the IC50 (on human ACSS2; in assay [1] (setting [2])) was under 100 nM in each case.

As to `CCC(F)(F)CNC(=O)Nc1ccc2nc(-c3ccccc3)c(-c3ccccc3)c(C(N)=O)c2c1` [Example 106, 6-(3-(2,2-difluorobutyl)ureido)-2,3-diphenylquino-line-4-carboxamide], the IC50 (at human ACSS2; in assay [1] (setting [2])) was under 100 nM in each case. For the molecule `CC[C@@H](O)CNC(=O)Nc1ccc2nc(C)c(-c3ccccc3F)cc2c1` [Example 100, (R)-1-(3-(2-fluorophenyl)-2-methylquinolin-6-yl)-3-(2-hydroxybutyl) urea], the IC50 (on human ACSS2; in assay [1] (setting [2])) was under 100 nM throughout.

As to `CC[C@@H](O)CNC(=O)Nc1ccc2nc(-c3ccccc3F)c(-c3ccccc3F)cc2c1` [Example 20, (R)-1-(2,3-Bis(2-fluorophenyl)quinolin-6-yl)-3-(2-hydroxybutyl)urea], the IC50 (at human ACSS2; in assay [1] (setting [2])) was under 100 nM each time. For the molecule `CCC(F)(F)CNC(=O)Nc1ccc2nc(-c3ccccc3)c(-c3ccccc3)cc2c1` [Example 107, 1-(2,2-difluorobutyl)-3-(2,3-diphenylquinolin-6-yl)urea], the IC50 (on human ACSS2; in assay [1] (setting [2])) was under 100 nM throughout. With `CCC(O)CNC(=O)Nc1ccc2nc(C)c(-c3ccccc3)c(C#N)c2c1` (stereo not shown) [Example 98, 1-(4-cyano-2-methyl-3-phenylquinolin-6-yl)-3-(2-hydroxybutyl) urea], the IC50 is at most 1000 nM at human ACSS2 and under 100 nM in assay [1] (setting [2]). Consider `CCC(O)CCC(=O)Nc1ccc2nc(C)c(-c3ccccc3)cc2c1` (stereo not shown) [Example 130, 4-hydroxy-N-(2-methyl-3-phenyl-quinolin-6-yl)hexan-amide], for which the half-maximal inhibitory concentration (IC50) is under 100 nM at human ACSS2 and at most 1000 nM in assay [1] (setting [2]).

`CCC(O)CNC(=O)Nc1ccc2nc(C)c(-c3ccccc3)cc2c1` (stereo not shown) [Example 52, 1-(2-hydroxybutyl)-3-(2-methyl-3-phenylquinolin-6-yl)urea]: the IC50 (on human ACSS2; in assay [1] (setting [2])) was under 100 nM throughout. As for `CCC(=O)CCC(=O)Nc1ccc2nc(-c3ccccc3OC)c(-c3ccccc3)cc2c1` [Example 120, N-(2-(2-methoxy-phenyl)-3-phenyl-quinolin-6-yl)-4-oxohexan-amide], the half-inhibitory concentration (IC50) (on human ACSS2; in assay [1] (setting [2])) was under 100 nM each time. As to `CCCCCC(=O)Nc1ccc2nc(-c3ccccc3F)c(-c3ccccc3F)cc2c1` [Example 121, N-(2,3-bis(2-fluorophenyl)quinolin-6-yl) hexanamide], the results for the IC50 (on human ACSS2; in assay [1] (setting [2])) were under 100 nM and at most 1000 nM, respectively. `CC[C@@H](O)CNC(=O)Nc1ccc2nc(-c3ccccc3)c(C)c(C(=O)NCc3cnn(C)c3)c2c1` [Example 114, (R)-6-(3-(2-hydroxybutyl)ureido)-3-methyl-N-((1-methyl-1H-pyrazol-4-yl)methyl)-2-phenylquinoline-4-carboxamide]: the concentration for half-maximal inhibition (IC50) is under 100 nM at human ACSS2 and at most 1000 nM in assay [1] (setting [2]).

As to `CCC(O)CNC(=O)Nc1ccc2nc(C3=CCCCC3)c(-c3ccccc3F)cc2c1` (stereo not shown) [Example 32, 1-(2-(cyclohex-1-en-1-yl)-3-(2-fluorophenyl)quinolin-6-yl)-3-(2-hydroxybutyl) urea], the half-maximal inhibitory concentration (IC50) (on human ACSS2; in assay [1] (setting [2])) was at most 1000 nM in each case. For the molecule `O=C(Nc1ccc2nc(-c3ccccc3)c(-c3ccccc3)cc2c1)NC1(CO)CCCC1` [Example 143, 1-(2,3-diphenylquinolin-6-yl)-3-(1-(hydroxymethyl)cyclopentyl) urea], the IC50 at human ACSS2 was over 10000 nM; in assay [1] (setting [2]), at most 10000 nM.

For `CCC(CNC(=O)Nc1ccc2nc(C)c(-c3ccccc3)cc2c1)OC` (stereo not shown) [Example 77, 1-(2-methoxybutyl)-3-(2-methyl-3-phenylquinolin-6-yl)urea], the results for the IC50 (on human ACSS2; in assay [1] (setting [2])) were under 100 nM and at most 1000 nM, respectively. For `CCC(O)CNC(=O)Nc1cnc2nc(-c3ccccc3)c(-c3ccccc3)cc2c1` (stereo not shown) [Example 145, 1-(6,7-Diphenyl-1,8-naphthyridin-3-yl)-3-(2-hydroxybutyl)urea], the IC50 (on human ACSS2; in assay [1] (setting [2])) was at most 1000 nM each time.

Consider `CC[C@@H](O)CNC(=O)Nc1ccc2nc(-c3ccccc3)c(-c3ccccc3)cc2c1` [Example 2, (R)-1-(2,3-diphenylquinolin-6-yl)-3-(2-hydroxybutyl) urea], for which the IC50 (on human ACSS2; in assay [1] (setting [2])) was under 100 nM throughout. Consider `CCC(O)CNC(=O)Nc1ccc2nc(-c3ccccn3)c(-c3ccccc3)cc2c1` (stereo not shown) [Example 38, 1-(2-hydroxybutyl)-3-(3-phenyl-2-(pyridin-2-yl)quinolin-6-yl)urea], for which the half-maximal inhibitory concentration (IC50) is under 100 nM at human ACSS2 and at most 1000 nM in assay [1] (setting [2]). For `CCC(O)CNC(=O)Nc1ccc2nc(C)c(-c3ccccc3F)cc2c1` (stereo not shown) [Example 75, 1-(3-(2-fluorophenyl)-2-methylquinolin-6-yl)-3-(2-hydroxybutyl) urea] the same measures were under 100 nM and under 100 nM. Regarding `CCC(O)CNC(=O)Nc1ccc2nc(-c3ccccc3)c(-c3ccccc3)c(N(C)C)c2c1` (stereo not shown) [Example 91, 1-(4-(dimethylamino)-2,3-diphenylquinolin-6-yl)-3-(2-hydroxybutyl) urea], the IC50 (on human ACSS2; in assay [1] (setting [2])) was under 100 nM in each case.

Regarding `O=C(Nc1ccc2nc(-c3ccccc3)c(-c3ccccc3)cc2c1)NC1CCCC1O` (stereo not shown) [Example 136, 1-(2,3-diphenylquinolin-6-yl)-3-(2-hydroxycyclo-pentyl)urea], the half-inhibitory concentration (IC50) (at human ACSS2; in assay [1] (setting [2])) was at most 1000 nM each time. `CCC(O)CNC(=O)Nc1ccc2nc(-c3ccccc3OC)c(-c3ccccc3OC)cc2c1` (stereo not shown) [Example 6, 1-(2,3-bis(2-methoxyphenyl)quinolin-6-yl)-3-(2-hydroxybutyl) urea]: the half-maximal inhibitory concentration (IC50) (on human ACSS2; in assay [1] (setting [2])) was under 100 nM throughout.

Consider `CCC(O)CNC(=O)Nc1ccc2nc(-c3ccccc3)c(-c3ccccc3)c(C(=O)NC)c2c1` (stereo not shown) [Example 62, 6-(3-(2-hydroxybutyl)ureido)-N-methyl-2,3-diphenylquino-line-4-carboxamide], for which the IC50 (on human ACSS2; in assay [1] (setting [2])) was under 100 nM in each case. On to `CCC(O)CNC(=O)Nc1ccc2nc(-c3ccccc3)c(-c3ccccc3)c(NS(C)(=O)=O)c2c1` (stereo not shown) [Example 94, N-(6-(3-(2-Hydroxybutyl)ureido)-2,3-diphenylquinolin-4-yl)methanesulfonamide], for which the IC50 (on human ACSS2; in assay [1] (setting [2])) was under 100 nM throughout. Consider `CC[C@H](O)CNC(=O)Nc1ccc2nc(-c3ccccc3)c(-c3ccccc3)cc2c1` [Example 68, (S)-1-(2,3-diphenylquino-lin-6-yl)-3-(2-hydroxybutyl) urea], for which the IC50 in assay [1] (3 h at 37° C.) was under 100 nM.
